Data: patent US6750028B1, “Anti-fibrotic agent assay” (Ethicon, Inc, priority 1996, dated 2004)

Assays:
[1] = system: TGF-β1 activation; assay: Macrophage activation assay (IC-21 macrophages, LPS, fetal fibroblast conditioned media, ELISA); type: cell-based, mouse; details: 1 μM
Description: Cultured macrophages were lifted from the dish with 3 ml of PBS. The PBS was balanced with 15 ml of RPMI-1640 containing 10% FBS. The cells were counted and then seeded in 100 mm plates at 1×10^6 cells/dish. When the cultured macrophages reached approximately 70% confluency (2-3 days) they were washed with PBS and RPMI-1640 medium containing 5% FBS and 10 ng/ml LPS was applied (FIG. 1). After 24 h of activation with LPS the cells were washed gently with PBS. At this point conditioned medium from confluent fetal dermal fibroblasts was collected and 5 ml was distributed into each dish containing macrophages. The cells were incubated for an additional 24 h, the media were collected, spun down at 600×g for 10 min and stored at 4° C. before TGF-β1 evaluation by ELISA. Each condition was done in duplicate. The cells, washed with PBS, were harvested for total RNA extraction.
Fetal dermal fibroblasts were seeded in 100 mm dishes at 1×10^6 cell/dish. The cells were grown to confluency (2-3 days). The cultures were washed with PBS and fresh medium, either DMEM supplemented with 10% FBS or AIM-V medium (a serum free medium) for serum-free conditions, was applied for 24 h (FIG. 1). The medium was collected and combined in order to obtain a homogenous pool of latent TGF-β1. The collection of the medium was done just prior to application in the macrophage assay.
(§1) Each measurement was performed in duplicates.

[2] = system: tissue Transglutaminase II mRNA; assay: mRNA for TGase II in macrophages by RT-PCR densitometry; type: cell-based, mouse; details: 1 μM hydrocortisone, densitometry of RT-PCR products, FIG. 3
Description: (§2) The cells were washed with PBS, followed by addition of the extraction buffer provided with the kit (RNeasy RNA extraction kit). The lysed cells were scraped from the dish and collected in microtubes. Samples were either frozen at −70° C. before analysis or directly assessed following manufacturer protocol. Absorbance at 260 nm and 280 nm was measured and the integrity of RNA was evaluated by denaturing formaldehyde agarose gels stained with ethidium bromide.
The procedure used to transcribe the total RNA was described in detail previously (28). […]
A portion of the first strand cDNA reaction was used in PCR, which was carried out in 25 μl containing 16 mM Tris-HCl, pH 8.3, 50 mM KCl, 1.5 mM MgCl2, 0.01% gelatin, 200 μM of each dNTPs, 1 μM each sense and antisense oligonucleotides and 2.5 units of AmpliTaq DNA polymerase. […] Sizes were determined using Q X 174 DNA/Hae III markers. […] Densitometry was used for quantitative analysis of the ethidium bromide stained gels.
In an attempt to identify the mechanism of this inhibition, the level of mRNA was evaluated for TGase II in macrophages treated with 1 μM hydrocortisone.

[3] = system: TGF-β1 activation; assay: BAEC treated with retinoic acid, TGF-β1 in conditioned media by ELISA; type: cell-based, bovine
Description: The procedures for preparation of conditioned media were described previously (22). Briefly, for the retinoid experiment, BAEC cells were grown to confluency in 35 mm dishes. The cultures were rinsed with PBS (Phosphate Buffered Saline), and incubated in 1 ml of serum-free DMEM containing 0.1% of BSA and retinoic acid (10 μM) or vehicle (0.5% ethanol). The incubation was carried out for 24 h. The medium was aspirated, the cells were washed with PBS and then incubated in 1 ml of DMEM/0.1% BSA for an additional 12 h to produce conditioned medium. Conditioned media were centrifuged and used in the ELISA assay for TGF-β1 evaluation.
Each measurement was performed in duplicates. […]

[4] = system: TGF-β1 activation; assay: Co-culture of BAEC and BASMC, TGF-β1 in conditioned media by ELISA; type: cell-based, bovine
Description: For co-culture experiments, BAECs and BASMCs were seeded separately in 35 mm dishes at a density of 40×10^4 cells in DMEM/10% CS (Calf Serum) or 3.2×10^5 BAECs and 0.8×10^5 BASMCs in the same 35-mm dishes. After cell attachment (approximately 2 h) the cells were rinsed with PBS and incubated in 1 ml of DMEM/0.1% BSA for 6 h to produce conditioned media. Conditioned Media were centrifuged and used in the ELISA assay.
as §1
Preliminary experiments were carried out with the aim to adopt the published co-culture system for screening anti-fibrotic agents.

[5] = system: TGF-β1 activation; assay: TGF-β1 activation by Bowes melanoma cells (ELISA); type: cell-based, human
Description: as §1
(§3) It has been shown that cancer cells, such as human breast cancer, some melanoma cell lines and prostate adenocarcinoma cell lines, constitutively release biologically active TGF-β1 into the culture medium (24, 25, 29). Since the homotypic cell culture system would be of advantage due to its simplicity, an attempt was made to implement cancer cells as a method for TGF-β1 activation.

[6] = system: TGF-β1 activation; assay: TGF-β1 activation by HMB-2 melanoma cells (ELISA); type: cell-based, human
Description: as §1, §3

[7] = system: TGF-β1 activation; assay: TGF-β1 activation by prostate adenocarcinoma cells (ELISA); type: cell-based, human
Description: as §1, §3

[8] = system: TGF-β1 mRNA; assay: mRNA for TGF-β1 in macrophages by Northern blot; type: cell-based, mouse; details: LPS alone or LPS with M6P or DCA, FIG. 2
Description: as §2
Northern blot analysis was carried out as described previously (27). Briefly, total RNA samples (5 μg) were diluted in formaldehyde-MOPS buffer and subjected to electrophoresis in a denaturing 1.2% Sea Kem GTG agarose gel along with the RNA size markers. RNA was transferred to a nitrocellulose membrane by capillary transfer. The blots were prehybridized for 3 h at 42° C. in a solution containing 10% dextran sulfate, 2×Denhardt's solution, 50% formamide, 5×SSPE (0.75 M Sodium chloride, 0.05 M sodium phosphate, 0.005 M ethylenediaminetetraacetic acid)/0.1% SDS, and 250 μg/ml of sheared salmon testis DNA. Hybridization solution was essentially the same except that ^32P dCTP-labeled DNA probe and 150 μg/ml of salmon testis DNA were included. The hybridization was carried out for 16 h at 42° C. […]

[9] = system: M6P/IGF-II receptor mRNA; assay: M6P/IGF-II receptor mRNA in human neonatal fibroblasts by RT-PCR; type: cell-based
Description: (§4) Human neonatal fibroblasts were seeded in 100 mm dishes at 1×10^6 cells/dish. […] In addition, cells were treated with two concentrations of Mannose 1-Phosphate (M1P) (100 and 200 μM) for 24 and 48 h. […] Each treatment was run in duplicates and repetitive analyses were performed.
(§5) The procedure used to transcribe the total RNA was described in detail previously (28). Briefly, the reaction was carried out in a total volume of 25 μl containing 1× reverse transcriptase buffer (50 mM Tris-HCl, pH 8.3, 75 mM KCl, 3 mM MgCl2), 10 mM DTT (Dithiothreitol), 2.5 mM each of dNTPs (Deoxynucleotides), 100 μg/ml of acetylated BSA, 4 units of rRNasin (ribonuclease inhibitor), 200 units of SuperScript™ RNase H^−Reverse Transcriptase, 0.1 μg of oligo (dT)12-18 and 1 μg of total RNA. Incubation was carried out for 1 h at 42° C. and was terminated by the addition of an equal volume of cold water.
(§6) A portion of the first strand cDNA reaction was used in PCR, which was carried out in 25 μl containing 16 mM Tris-HCl, pH 8.3, 50 mM KCl, 1.5 mM MgCl2, 0.01% gelatin, 200 μM of each dNTPs, 1 μM each sense and antisense oligonucleotides and 2.5 units of AmpliTaq DNA polymerase. Amplification was carried out for 35 cycles. Each cycle consisted of: denaturation 1 min at 95° C.; annealing at 55° C. (optimal for the pair of oligonucleotides used) for 2 min; and elongation at 72° C., 3 min. For the final cycle elongation was 7 min. Reaction products were separated by 2% agarose gel electrophoresis and were visualized by ethidium bromide staining. Sizes were determined using Q X 174 DNA/Hae III markers. Restriction digests were performed in order to confirm PCR product specificity. Densitometry was used for quantitative analysis of the ethidium bromide stained gels.

[10] = system: TGF-β1 mRNA; assay: TGF-β1 mRNA in human neonatal fibroblasts by RT-PCR; type: cell-based
Description: as §4, §5, §6

[11] = system: TGF-β receptor type I mRNA; assay: TGF-β receptor type I mRNA in human neonatal fibroblasts by RT-PCR; type: cell-based; details: M6P, time course of treatment (24 and 48 h)
Description: as §4, §5
A portion of the first strand cDNA reaction was used in PCR, which was carried out in 25 μl containing 16 mM Tris-HCl, pH 8.3, 50 mM KCl, 1.5 mM MgCl2, 0.01% gelatin, 200 μM of each dNTPs, 1 μM each sense and antisense oligonucleotides and 2.5 units of AmpliTaq DNA polymerase. Amplification was carried out for 35 cycles. […] Sizes were determined using Q X 174 DNA/Hae III markers. […] Densitometry was used for quantitative analysis of the ethidium bromide stained gels.

[12] = system: M6P/IGF-II receptors; assay: M6P/IGF-II receptor levels within wounds treated with M6P; type: in vivo; details: 3 days post-wounding
[13] = BAEC + RA (10 μM) + test agent 100 μM

C[C@]12CCC(=O)C=C1CC[C@@H]1[C@@H]2[C@@H](O)C[C@@]2(C)[C@H]1CC[C@]2(O)C(=O)CO [Hydrocortisone, hydrocortisone]
active TGF-β1, % Control (STD) [1]: 64.0 (0.4) % | active TGF-β1, % Control (STD) ([1]; listed as hydrocortisone): 64.0% | level of mRNA for TGase II, reduced to [2]: 37.5%

O=C[C@@H](O)[C@@H](O)[C@H](O)[C@H](O)COP(=O)(O)O [M6P, D-mannose 6-phosphate]
inhibitory effect on TGF-β1 activation, in words ([3]; 100 μM, BAEC treated with RA): no significant inhibitory effects | % Active [3, 13]: 8.1% | Active TGF-β1 [3, 13]: 287 pg/mL | Total TGF-β1 [3, 13]: 3544 pg/mL | inhibition of TGF-β1 activation, in words ([4]; 100 μM): did not significantly inhibit | % Active ([4]; Co-culture + M6P 100 μM): 7.5% | Active TGF-β1 ([4]; Co-culture + M6P 100 μM): 58 pg/mL | Total TGF-β1 ([4]; Co-culture + M6P 100 μM): 770 pg/mL | % ACTIVE TGF-β1 (STD) ([5]; BOWES, M6P 100 μM, DCA 100 μM, antibody 1:1500 dil): 113.5% | effect on TGF-β1 activation, in words ([5]; melanoma cells (Bowes)): no effect | % ACTIVE TGF-β1 (STD) ([6]; HMB-2, M6P 100 μM, DCA 100 μM, antibody 1:1500 dil): 108.4% | effect on TGF-β1 activation, in words ([6]; melanoma cells (HMB-2)): no effect | % ACTIVE TGF-β1 (STD) ([7]; Adenocarcinoma cells, M6P 100 μM, cystamine 100 μM, antibody 1:1500 dil): 91.8% | effect on TGF-β1 activation, in words ([7]; prostate cancer cells): no effect | levels of mRNA for TGF-β1, in words [8]: remained the same | expression of mRNA for M6P/IGF-II receptor, in words ([9]; 1-100 μM, 24 h): not affected | expression of mRNA for M6P/IGF-II receptor, in words ([9]; 50-200 μM, 48 h): decrease | expression of TGF-β1 cDNA (RT-PCR) ([10]; M6P 1 μM, 24 h): 80.9 | expression of TGF-β1 cDNA (RT-PCR) ([10]; M6P 1 μM, 48 h): 86.3 | expression of TGF-β1 cDNA (RT-PCR) ([10]; M6P 10 μM, 24 h): 116.2 | expression of TGF-β1 cDNA (RT-PCR) ([10]; M6P 10 μM, 48 h): 78.8 | expression of TGF-β1 cDNA (RT-PCR) ([10]; M6P 50 μM, 24 h): 119.3 | expression of TGF-β1 cDNA (RT-PCR) ([10]; M6P 50 μM, 48 h): 75 | expression of TGF-β1 cDNA (RT-PCR) ([10]; M6P 100 μM, 24 h): 95.6 | expression of TGF-β1 cDNA (RT-PCR) ([10]; M6P 200 μM, 24 h): 62.5 | expression of TGF-β1 cDNA (RT-PCR) ([10]; M6P 200 μM, 48 h): 28.8 | level of TGF-β receptor type I mRNA, in words [11]: unchanged | levels of the M6P/IGF-II receptors within the wounds, in words [12]: downregulated
